Measurements taken from patent publication US20260159512A1, “BCAT2 INHIBITORS” (AGIOS PHARMACEUTICALS, INC., priority 2021, published 2026).
Values joined by “and” are separate entries in the source; they are usually repeats but may differ in a detail not shown here. Identical values can stand only once.

Columns and labels:
Settings in all cases: average where tested multiple times
BCAT2 [1] = target: T1, BCAT2 (Homo sapiens, UniProt O15382); test: BCAT2 in vitro enzyme inhibition assay (resazurin/diaphorase-coupled fluorescence); type: biochemical
T1 sequence (O15382 28-392): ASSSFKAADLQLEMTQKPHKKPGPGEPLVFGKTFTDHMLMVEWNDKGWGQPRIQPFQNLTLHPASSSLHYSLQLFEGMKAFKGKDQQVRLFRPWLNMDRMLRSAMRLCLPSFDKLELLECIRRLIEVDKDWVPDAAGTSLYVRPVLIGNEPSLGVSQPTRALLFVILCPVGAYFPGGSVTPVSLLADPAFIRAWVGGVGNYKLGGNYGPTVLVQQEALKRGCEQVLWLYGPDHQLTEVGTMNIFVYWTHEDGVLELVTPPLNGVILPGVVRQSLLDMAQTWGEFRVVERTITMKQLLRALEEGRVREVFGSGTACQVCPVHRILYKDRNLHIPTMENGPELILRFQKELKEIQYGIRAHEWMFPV
Summary of the method: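 Coupled fluorescence readout: glutamate formed from L-leucine/α-ketoglutarate transamination drives GDH/NAD/diaphorase reduction of resazurin (Ex 540/Em 590). Human BCAT2 was first exposed 1 h at room temperature to compound, top final 100 μM in 3-fold, 10-point series; substrate reaction ran 1 h before SDS quench, in technical duplicate with DMSO max and enzyme-free min controls.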

BCAT2 [2] = target: T1, BCAT2; test: BCAT2 in vitro cell inhibition using engineered A549 cells (KMV cell assay, 13C6-KMV by LC-MS/MS); type: cell-based; set-up: The result was an engineered A549 cell line that expressed endogenous BCAT2; endogenous in cells; host or cells: A549 cells with MUT and BCAT1 knocked out by CRISPR/CAS9; key to BCAT2 Cell Inhibition: A: less than or equal to 0.100 μM; B: greater than 0.100 and less than or equal to 0.500 μM; C: greater than 0.500 and less than or equal to 1.000 μM; d: greater than 1.000 μM; E: no fit
hBCAT1 = target: T2, hBCAT1 (Homo sapiens, UniProt P54687); test: BCAT1 in vitro enzyme inhibition assay (resazurin/diaphorase-coupled fluorescence); type: biochemical
T2 sequence (P54687 1-386): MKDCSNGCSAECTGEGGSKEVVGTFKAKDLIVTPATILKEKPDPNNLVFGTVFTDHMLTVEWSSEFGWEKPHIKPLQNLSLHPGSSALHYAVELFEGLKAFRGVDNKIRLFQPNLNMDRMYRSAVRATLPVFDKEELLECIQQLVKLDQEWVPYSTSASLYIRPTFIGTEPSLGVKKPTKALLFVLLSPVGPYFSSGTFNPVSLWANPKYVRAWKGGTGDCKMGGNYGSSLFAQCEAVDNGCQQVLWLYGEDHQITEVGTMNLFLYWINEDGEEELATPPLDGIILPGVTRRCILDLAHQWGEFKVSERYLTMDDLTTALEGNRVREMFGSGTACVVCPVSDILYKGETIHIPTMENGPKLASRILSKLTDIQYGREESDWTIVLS
Summary of the method: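 Ten-point, 3-fold compound series (top final 100 μM, delivered 1:50 from 50× DMSO stocks) tested against hBCAT1. Inhibition detected via diaphorase-coupled resazurin fluorescence, duplicate wells, with values from repeated runs averaged.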

Row | IC50 (BCAT2 [1]) [nM] | IC50 (BCAT2 [2]) | IC50 (hBCAT1) [nM] | BCAT2 Cell Inhibition (BCAT2 [2]) | Structure (SMILES)
1 | ≤ 100 | 500 to 1000 nM and 100 to 500 nM | > 5000 | – | Cn1nccc1-c1nc2cnc(-n3nccn3)cc2n1[C@@H]1CCC[C@H](NC(=O)c2ncc(C(F)F)s2)C1 [Example 43, 5-(difluoromethyl)-N-((1S,3R)-3-(2-(1-methyl-1H-pyrazol-5-yl)-6-(2H-1,2,3-triazol-2-yl)-1H-imidazo[4,5-c]pyridin-1-yl)cyclohexyl)thiazole-2-carboxamide]
2 | ≤ 100 | ≤ 100 nM | < 500 | – | O=C(N[C@H]1CCCN(n2c(-c3ccccc3F)nc3cnc(-c4nc[nH]n4)cc32)C1)c1ncc(Cl)s1 [Example 364, (S)-5-chloro-N-(1-(2-(2-fluorophenyl)-6-(1H-1,2,4-triazol-3-yl)-1H-imidazo[4,5-c]pyridin-1-yl)piperidin-3-yl)thiazole-2-carboxamide]
3 | ≤ 100 | 100 to 500 nM | 1000 to 5000 | – | O=C(N[C@H]1CCC[C@@H](n2c(-c3ccccc3F)nc3cnc(-c4cccnn4)cc32)C1)c1ncc(Cl)s1 [Example 188, 5-chloro-N-((1S,3R)-3-(2-(2-fluorophenyl)-6-(pyridazin-3-yl)-1H-imidazo[4,5-c]pyridin-1-yl)cyclohexyl)thiazole-2-carboxamide]
4 | ≤ 100 | ≤ 100 nM | < 500 | – | CC(=O)N1CC(NC(=O)c2ncc(C(F)F)s2)CC(n2c(-c3ccccc3F)nc3cnc(-c4ncco4)cc32)C1 (stereo not drawn) [Example 126, N-(1-acetyl-5-(2-(2-fluorophenyl)-6-(oxazol-2-yl)-1H-imidazo[4,5-c]pyridin-1-yl)piperidin-3-yl)-5-(difluoromethyl)thiazole-2-carboxamide]
5 | 100 to 500 | > 1000 nM | > 5000 | – | CC(C)Cc1nc2cnc(-c3ncns3)cc2n1[C@@H]1CCC[C@H](NC(=O)c2ncc(Cl)s2)C1 [Example 328, 5-chloro-N-((1S,3R)-3-(2-isobutyl-6-(1,2,4-thiadiazol-5-yl)-1H-imidazo[4,5-c]pyridin-1-yl)cyclohexyl)thiazole-2-carboxamide]
6 | ≤ 100 | ≤ 100 nM | < 500 | – | CC(=O)N1CC(NC(=O)c2ncc(C(F)F)s2)CC(n2c(-c3ccccc3F)nc3cnc(-n4nccn4)cc32)C1 (stereo not drawn) [Example 123, N-(1-acetyl-5-(2-(2-fluorophenyl)-6-(2H-1,2,3-triazol-2-yl)-1H-imidazo[4,5-c]pyridin-1-yl)piperidin-3-yl)-5-(difluoromethyl)thiazole-2-carboxamide]

The next lines start with the compound.

Row | Structure (SMILES) | IC50 (BCAT2 [1]) [nM] | IC50 (BCAT2 [2]) | IC50 (hBCAT1) [nM] | BCAT2 Cell Inhibition (BCAT2 [2])
7 | O=C(N[C@H]1CCC[C@@H](n2c(-n3cccn3)nc3cnc(-n4nccn4)cc32)C1)c1ncc(C(F)F)s1 [Example 56, N-((1S,3R)-3-(2-(1H-pyrazol-1-yl)-6-(2H-1,2,3-triazol-2-yl)-1H-imidazo[4,5-c]pyridin-1-yl)cyclohexyl)-5-(difluoromethyl)thiazole-2-carboxamide] | ≤ 100 | 100 to 500 nM | 1000 to 5000 | –
8 | O=C(N[C@H]1CCC[C@@H](n2c(C3COCCO3)nc3cnc(-c4nc[nH]n4)cc32)C1)c1ncc(Cl)s1 (single isomer, unassigned) [Example 176] | 100 to 500 | > 1000 nM | 1000 to 5000 | –
9 | Cc1nc(-c2cc3c(cn2)nc(CC(C)C)n3[C@@H]2CCC[C@H](NC(=O)c3ncc(Cl)s3)C2)cs1 [Example 158, 5-chloro-N-((1S,3R)-3-(2-isobutyl-6-(2-methylthiazol-4-yl)-1H-imidazo[4,5-c]pyridin-1-yl)cyclohexyl)thiazole-2-carboxamide] | ≤ 100 | > 1000 nM | 1000 to 5000 | –
10 | Cn1nccc1-c1nc2cnc(-n3ccnn3)cc2n1[C@@H]1CCC[C@H](NC(=O)c2ncc(C(F)F)s2)C1 [Example 44, 5-(difluoromethyl)-N-((1S,3R)-3-(2-(1-methyl-1H-pyrazol-5-yl)-6-(1H-1,2,3-triazol-1-yl)-1H-imidazo[4,5-c]pyridin-1-yl)cyclohexyl)thiazole-2-carboxamide] | > 1000 | – | > 5000 | E
11 | CC(C)Cc1nc2cnc(-c3nc[nH]n3)cc2n1[C@@H]1C[C@H](NC(=O)c2ncc(Cl)s2)CN(C)C1 (single isomer, unassigned) [Example 135] | > 1000 | – | > 5000 | E
12 | O=C(N[C@H]1CCC[C@@H](n2c(-c3ccccn3)nc3cnc(-n4cccn4)cc32)C1)c1ccc(Br)s1 [Example 30, N-((1S,3R)-3-(6-(1H-pyrazol-1-yl)-2-(pyridin-2-yl)-1H-imidazo[4,5-c]pyridin-1-yl)cyclohexyl)-5-bromothiophene-2-carboxamide] | ≤ 100 | 500 to 1000 nM | 1000 to 5000 | –
13 | O=C(N[C@H]1CCC[C@@H](n2c(-c3ccccn3)nc3cnc(-n4ccnn4)cc32)C1)c1ncc(Br)s1 [Example 32, 5-bromo-N-((1S,3R)-3-(2-(pyridin-2-yl)-6-(1H-1,2,3-triazol-1-yl)-1H-imidazo[4,5-c]pyridin-1-yl)cyclohexyl)thiazole-2-carboxamide] | 100 to 500 | > 1000 nM | 1000 to 5000 | –
14 | CO[C@H]1C[C@@H](NC(=O)c2ncc(Cl)s2)C[C@@H](n2c(-c3ccccc3F)nc3cnc(-c4nc[nH]n4)cc32)C1 (stereo in doubt) [Example 420, 5-chloro-N-((1S,3R,5S)-3-(2-(2-fluorophenyl)-6-(1H-1,2,4-triazol-3-yl)-1H-imidazo[4,5-c]pyridin-1-yl)-5-methoxycyclohexyl)thiazole-2-carboxamide] | ≤ 100 | ≤ 100 nM | < 500 | –
15 | O=C(NC1CCCCC(n2c(-c3c(O)cccc3F)nc3cnc(-c4nc[nH]n4)cc32)C1O)c1ccc(Cl)s1 (stereo not drawn) [Example 403, 5-chloro-N-(3-(2-(2-fluoro-6-hydroxyphenyl)-6-(1H-1,2,4-triazol-3-yl)-1H-imidazo[4,5-c]pyridin-1-yl)-2-hydroxycycloheptyl)thiophene-2-carboxamide] | ≤ 100 | 100 to 500 nM | < 500 | –
